The Ki is a dissociation constant, usually derived from enzyme kinetics or from competition with a known ligand. Broadly, the EC50 is the concentration that produces a half-maximal response. Lower therefore signals higher potency in that assay.

Drawing on ChEMBL document CHEMBL5614448, “Current Trends in Psychedelic Science: Integrating Modified Lysergic Acid Derivatives and Psilocybin in Modern Medicine” (ACS Med Chem Lett, 2024), this text covers Ki, max activation and EC50 for nine compounds.

Assay [1] addresses T1, 5-hydroxytryptamine receptor 2A (Homo sapiens, UniProt P28223). Description: Displacement of [125I]DOI from 5-HT2A receptor (unknown origin) assessed as inhibition constant.
Assay [2] deals with T1, 5-hydroxytryptamine receptor 2A. Description: Activation of human 5-HT2A receptor assessed as maximal activation relative to control. As to conditions: filed as activator.
For assay [3] the target is unchanged. Description: Activation of human 5-HT2A receptor.

T1 sequence (P28223 whole entry): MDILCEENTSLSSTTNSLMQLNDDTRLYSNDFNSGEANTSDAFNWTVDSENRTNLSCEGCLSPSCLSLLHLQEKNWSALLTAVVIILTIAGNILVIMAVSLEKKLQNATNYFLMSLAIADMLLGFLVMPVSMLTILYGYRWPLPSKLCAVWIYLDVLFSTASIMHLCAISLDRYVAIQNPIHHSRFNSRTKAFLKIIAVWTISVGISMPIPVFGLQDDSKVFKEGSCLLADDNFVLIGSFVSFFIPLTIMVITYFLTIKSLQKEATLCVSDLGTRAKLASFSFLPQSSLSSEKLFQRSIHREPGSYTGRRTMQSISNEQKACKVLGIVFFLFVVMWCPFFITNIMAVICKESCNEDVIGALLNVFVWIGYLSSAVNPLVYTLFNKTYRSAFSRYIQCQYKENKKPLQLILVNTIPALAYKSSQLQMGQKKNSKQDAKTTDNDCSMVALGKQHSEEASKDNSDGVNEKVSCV

For `CCN(CCF)C(=O)[C@@H]1C=C2c3cccc4[nH]cc(c34)C[C@H]2N(C)C1`, in assay [1], the Ki amounted to 0.34 nM. In addition, in assay [2], the max activation was 69%. The response in assay [3] was half-maximal at 0.43 nM (EC50).
As to `CCN(CC(F)F)C(=O)[C@@H]1C=C2c3cccc4[nH]cc(c34)C[C@H]2N(C)C1`, in assay [1], the inhibition constant (Ki) was 0.21 nM. In addition, the max activation in assay [2] is 77%. The response in assay [3] was half-maximal at 0.76 nM (EC50).
As to `C#CCN(CC)C(=O)[C@@H]1C=C2c3cccc4[nH]cc(c34)C[C@H]2N(C)C1`, the Ki in assay [1] was 0.36 nM. Besides, the max activation in assay [2] was found to be 68%. The compound further yielded a 50% effective concentration (EC50) in assay [3] of 0.83 nM.
The corresponding values for `CN1C[C@H](C(=O)N(CCF)CC(F)F)C=C2c3cccc4[nH]cc(c34)C[C@H]21` are 0.43 nM, 78% and 0.25 nM.
As for `CN1C[C@H](C(=O)N(CC(F)F)CC(F)F)C=C2c3cccc4[nH]cc(c34)C[C@H]21`, the Ki in assay [1] worked out at 0.33 nM. The max activation in assay [2] came out at 82%. Moreover, the midpoint of the response in assay [3], the EC50, lay at 0.9 nM.
Turning to `C#CCN(C)C(=O)[C@@H]1C=C2c3cccc4[nH]cc(c34)C[C@H]2N(C)C1`, in assay [1], the Ki came out at 0.54 nM. Further, the max activation in assay [2] was 70%. Also, in assay [3], the EC50 is 0.98 nM.
For `CCN(CC#N)C(=O)[C@@H]1C=C2c3cccc4[nH]cc(c34)C[C@H]2N(C)C1` the same measures were 0.19 nM, 68% and 0.88 nM.
On to `CN(CC(F)(F)F)C(=O)[C@@H]1C=C2c3cccc4[nH]cc(c34)C[C@H]2N(C)C1`, for which, in assay [1], the inhibition constant Ki was found to be 0.26 nM. The max activation in assay [2] was found to be 72%. Further, the EC50 in assay [3] came out at 9.1 nM.
For `CCN(CC(F)(F)F)C(=O)[C@@H]1C=C2c3cccc4[nH]cc(c34)C[C@H]2N(C)C1` the same measures were 0.45 nM, 82% and 3.2 nM.
